Measurements as given in patent US8022091B2, “Triazole derivative” (Taisho Pharmaceutical Co., Ltd., priority 2006, dated 2011).
pIC50: −log10 of the molar value. “And” between values parts separate entries of the source, which are not always exact repeats. Equal entries are not always repeated.

Tests used:
human Edg-1 (S1P1) = target: T1, human Edg-1 (S1P1) (Homo sapiens, UniProt P21453); assay: S1P1 binding assay: inhibition of [33P]-S1P binding to membrane fraction of HEK-293 cells transferred with the human Edg-1 (S1P1) gene; conditions: for inhibition at 10 µM: test compound at 10 μM, inhibition of [33P]-S1P binding to the membrane fraction of HEK-293 cells expressing human Edg-1 (S1P1); for pIC50: [33P]-S1P 0.1 nM, human Edg-1 (S1P1) HEK-293 membrane fraction, 1 h at 30° C., read-out: IC50 (concentration at which binding in the absence of the test compound was inhibited by 50%)
T1 construct: expressed in transfected cells; host or cells: HEK-293
T1 sequence (P21453 whole entry): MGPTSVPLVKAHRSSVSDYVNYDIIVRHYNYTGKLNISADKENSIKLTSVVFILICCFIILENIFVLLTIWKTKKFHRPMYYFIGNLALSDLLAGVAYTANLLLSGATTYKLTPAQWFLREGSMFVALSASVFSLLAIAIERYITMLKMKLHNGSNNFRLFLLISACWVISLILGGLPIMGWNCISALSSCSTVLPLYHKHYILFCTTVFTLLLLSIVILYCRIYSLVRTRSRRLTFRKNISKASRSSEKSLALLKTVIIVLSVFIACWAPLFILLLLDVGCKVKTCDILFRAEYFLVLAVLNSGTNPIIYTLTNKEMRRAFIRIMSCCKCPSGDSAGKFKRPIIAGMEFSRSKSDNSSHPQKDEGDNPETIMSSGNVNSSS
Outline: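 Membranes from S1P1-transfected HEK-293 cells incubated 1 h at 30° C in pH 7.4 Tris buffer with fatty acid-free BSA, 0.1 nM [33P]-S1P and test compound (0.1% DMSO). Filter-bound radioactivity was counted; inhibition corrected for binding to untransfected-cell membranes, and IC50 derived from concentration series.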

inhibition at 10 µM (human Edg-1 (S1P1)) [%] | melting point [°C] | pIC50 (human Edg-1 (S1P1)) | Structure (SMILES)
95.4 | 129.5 to 131.5 | – | CCn1c(Oc2cc(OC)c(OC)c(OC)c2)nnc1[C@@H](C)NS(=O)(=O)c1ccc(Cl)c(Cl)c1 [Compound 17]
102 | 189 to 194 | ≥ 7.46 | CCn1c(Oc2cc(C)c(C)c(C)c2)nnc1[C@@H](C)NS(=O)(=O)c1ccc(Cl)c(Cl)c1 [Compound 18]
97.9 | 145 to 150 | – | CCn1c(Oc2cc(C)cc(C)c2)nnc1[C@@H](C)NS(=O)(=O)c1ccc(Cl)c(Cl)c1 [Compound 19]
97.4 | 118 to 120 | – | CCn1c(Oc2cc(OC)cc(OC)c2)nnc1[C@@H](C)NS(=O)(=O)c1ccc(Cl)c(Cl)c1 [Compound 20]
96.7 | 146.5 to 149.5 | ≥ 7.46 | CCCCOc1ccc(Oc2nnc([C@@H](C)NS(=O)(=O)c3ccc(Cl)c(Cl)c3)n2CC)cc1 [Compound 21]
95.4 | 163 to 167.5 | 7.85 | CCn1c(Oc2ccc(Oc3ccccc3)cc2)nnc1[C@@H](C)NS(=O)(=O)c1ccc(Cl)c(Cl)c1 [Compound 22]
96.7 | 173 to 176 | ≥ 7.46 | CCn1c(Oc2ccc(OCc3ccccc3)cc2)nnc1[C@@H](C)NS(=O)(=O)c1ccc(Cl)c(Cl)c1 [Compound 23]
101 | 172.5 to 173 | ≥ 8.00 | CCc1ccc(Oc2nnc([C@@H](C)NS(=O)(=O)c3ccc(Cl)c(Cl)c3)n2CC)cc1 [Compound 24]
97.5 | 155 to 156 | ≥ 7.46 | CCCc1ccc(Oc2nnc([C@@H](C)NS(=O)(=O)c3ccc(Cl)c(Cl)c3)n2CC)cc1 [Compound 25]
97.9 | 159 to 164 | ≥ 7.46 | CCn1c(Oc2ccc(Cl)c(C)c2)nnc1[C@@H](C)NS(=O)(=O)c1ccc(Cl)c(Cl)c1 [Compound 26]
100 | 163 to 168 | – | CCn1c(Oc2ccc(-n3cccc3)cc2)nnc1[C@@H](C)NS(=O)(=O)c1ccc(Cl)c(Cl)c1 [Compound 27]
104 | 165 to 170 | 8.51 | CCn1c(Oc2cccc(N(C)C)c2)nnc1[C@@H](C)NS(=O)(=O)c1ccc(Cl)c(Cl)c1 [Compound 28]
101 | 177 to 178.5 | – | CCn1c(Oc2ccc(-c3ccccc3)cc2)nnc1[C@@H](C)NS(=O)(=O)c1ccc(Cl)c(Cl)c1 [Compound 29]
100 | 212 to 216 | – | CCn1c(Oc2cc(Cl)cc(Cl)c2)nnc1[C@@H](C)NS(=O)(=O)c1ccc(Cl)c(Cl)c1 [Compound 30]
101 | 143 to 146 | – | CCn1c(Oc2ccc(F)c(Cl)c2)nnc1[C@@H](C)NS(=O)(=O)c1ccc(Cl)c(Cl)c1 [Compound 31]
104 | 147 to 148 | ≥ 7.46 | CCCCc1ccc(Oc2nnc([C@@H](C)NS(=O)(=O)c3ccc(Cl)c(Cl)c3)n2CC)cc1 [Compound 32]
101 | 173.5 to 174.5 | – | CCn1c(Oc2ccc(OC(F)(F)F)cc2)nnc1[C@@H](C)NS(=O)(=O)c1ccc(Cl)c(Cl)c1 [Compound 33]
106 | 192.5 to 195.5 | 8.70 | CCn1c(Oc2cccc(N3CCOCC3)c2)nnc1[C@@H](C)NS(=O)(=O)c1ccc(Cl)c(Cl)c1 [Compound 34]
100 | 156 to 159 | ≥ 7.46 | CCn1c(Oc2ccc(OCCN(C)C)cc2)nnc1[C@@H](C)NS(=O)(=O)c1ccc(Cl)c(Cl)c1 [Compound 35]

inhibition at 10 µM (human Edg-1 (S1P1)) [%] | melting point [°C] | pIC50 (human Edg-1 (S1P1)) | Structure (SMILES)
102 | 125 to 130 | 7.76 | CCn1c(Oc2ccc(OCCN3CCOCC3)cc2)nnc1[C@@H](C)NS(=O)(=O)c1ccc(Cl)c(Cl)c1 [Compound 36]
100 | 145 to 147 | ≥ 7.46 | CCn1c(Oc2ccc(F)c(C)c2)nnc1[C@@H](C)NS(=O)(=O)c1ccc(Cl)c(Cl)c1 [Compound 37]
105 | 148.5 to 150 | 7.93 | COc1ccc(Oc2nnc([C@@H](C)NS(=O)(=O)c3ccc(Cl)c(Cl)c3)n2C2CC2)cc1 [Compound 38]
98.5 | 176 to 178 | ≥ 8.00 | CCn1c(Oc2ccc(C(C)C)cc2)nnc1[C@@H](C)NS(=O)(=O)c1ccc(Cl)c(Cl)c1 [Compound 39]
106 | 155.5 to 156.5 | ≥ 8.00 | CCn1c(Oc2cccc(C(C)C)c2)nnc1[C@@H](C)NS(=O)(=O)c1ccc(Cl)c(Cl)c1 [Compound 40]
92 | 166 to 170 | – | CCn1c(Oc2cccc3ccccc23)nnc1[C@@H](C)NS(=O)(=O)c1ccc(Cl)c(Cl)c1 [Compound 41]
102 | 176.5 to 179.5 | 7.66 | CCn1c(Oc2ccc3ccccc3c2)nnc1[C@@H](C)NS(=O)(=O)c1ccc(Cl)c(Cl)c1 [Compound 42]
99.8 | 182.5 to 185 | ≥ 7.46 | CCn1c(Oc2ccc(N(C)C)cc2)nnc1[C@@H](C)NS(=O)(=O)c1ccc(Cl)c(Cl)c1 [Compound 43]
100 | 140 to 145.5 | – | CCn1c(Oc2ccc(F)c(F)c2)nnc1[C@@H](C)NS(=O)(=O)c1ccc(Cl)c(Cl)c1 [Compound 44]
94.6 | 247 to 250 | ≥ 7.46 and 7.55 | CCn1c(Oc2ccc3sc(C)nc3c2)nnc1[C@@H](C)NS(=O)(=O)c1ccc(Cl)c(Cl)c1 [Compound 46]
102 | 191 to 192 | – | CCn1c(Oc2ccc(N3CCOCC3)cc2)nnc1[C@@H](C)NS(=O)(=O)c1ccc(Cl)c(Cl)c1 [Compound 47]
96.7 | 195.5 to 196.5 | – | CCn1c(Oc2ccc(N3CCCCC3)cc2)nnc1[C@@H](C)NS(=O)(=O)c1ccc(Cl)c(Cl)c1 [Compound 48]
102 | 198 to 199 | 8.22 | CCn1c(Oc2ccc(N3CCCC3)cc2)nnc1[C@@H](C)NS(=O)(=O)c1ccc(Cl)c(Cl)c1 [Compound 49]
92.9 | 129 to 130 | – | CCn1c(Oc2cccnc2)nnc1[C@@H](C)NS(=O)(=O)c1ccc(Cl)c(Cl)c1 [Compound 50]
99.9 | 148.5 to 150.5 | – | CCn1c(Oc2ccc(C)nc2)nnc1[C@@H](C)NS(=O)(=O)c1ccc(Cl)c(Cl)c1 [Compound 51]
100 | 203 to 205 | – | CCn1c(Oc2ccc(N3CCN(C)CC3)cc2)nnc1[C@@H](C)NS(=O)(=O)c1ccc(Cl)c(Cl)c1 [Compound 52]
86.8 | 172 to 173 | – | CCn1c(Oc2ccccn2)nnc1[C@@H](C)NS(=O)(=O)c1ccc(Cl)c(Cl)c1 [Compound 53]
104 | 192 to 193 | – | CCn1c(Oc2ccc3ccncc3c2)nnc1[C@@H](C)NS(=O)(=O)c1ccc(Cl)c(Cl)c1 [Compound 54]
